Laboratory results as given in patent publication US20080319191A1, “Crystalline form IV of linezolid” (Teva Pharmaceutical Industries Ltd., priority 2005, published 2008).

How the values were obtained:
Type in all cases: physicochemical
[1] = Chemical stability of Form IV obtained by heating Form II at 170° C.; conditions: Form IV obtained at 170° C. (one hour)
Protocol: Crystalline linezolid Form IV may be prepared by heating crystalline linezolid Form II to a temperature higher than 85° C. Crystalline linezolid Form IV is obtained by keeping crystalline linezolid Form II at a temperature of between 85-175° C. As an example, crystalline linezolid Form II was kept at a temperature of 170° C. during one hour. The polymorphic form of crystalline linezolid Form II was changed to crystalline linezolid Form IV.

[2] = Long term stability of linezolid Form IV at room temperature and accelerated conditions (40° C. and 55° C.)
Protocol: The long term stability of linezolid Form IV was tested by storing it at room temperature and under accelerated conditions at 40° C. and 55° C.

[3] = Stability of linezolid Form IV stored 10 days at 0-100% relative humidity at room temperature
Protocol: The stability of linezolid Form IV was tested by storing it for 10 days at a relative humidity of between 0 and 100% at room temperature.

Chemical stability [1]: chemically stable
Crystal form after storage (Results) ([2]; 25° C., 1 M): Form IV
Crystal form after storage (Results) ([2]; 25° C., 2 M): Form IV
Crystal form after storage (Results) ([2]; 25° C., 3 M): Form IV
Time stable on storage ([2]; 25° C., 40° C., and 55° C.): ≥ 3 months
Crystal form after storage (Results) ([2]; 25° C., As is): Form IV
Crystal form after storage (Results) ([2]; 40° C., 1 M): Form IV
Crystal form after storage (Results) ([2]; 40° C., 2 M): Form IV
Crystal form after storage (Results) ([2]; 40° C., 3 M): Form IV
Crystal form after storage (Results) ([2]; 55° C., 1 M): Form IV
Crystal form after storage (Results) ([2]; 55° C., 2 M): Form IV
Crystal form after storage (Results) ([2]; 55° C., 3 M): Form IV
Solvent content ([3]; As is (before storage)): 0.1%
Hygroscopicity ([3]; between 0-100% RH): non-hygroscopic
Stability ([3]; between 0-100% RH): stable
Solvent content ([3]; relative humidity 0%, 10 days, room temperature): 0.1%
Solvent content ([3]; relative humidity 20%, 10 days, room temperature): 0.1%
Solvent content ([3]; relative humidity 40%, 10 days, room temperature): 0.1%
Solvent content ([3]; relative humidity 60%, 10 days, room temperature): 0.1%
Solvent content ([3]; relative humidity 80%, 10 days, room temperature): 0.1%
Solvent content ([3]; relative humidity 100%, 10 days, room temperature): 0.1%
Time stable against transformation into Form II upon storage ([3]; relative humidity of about 0% to about 100%, room temperature): at least 10 days
Compound: CC(=O)NC[C@H]1CN(c2ccc(N3CCOCC3)c(F)c2)C(=O)O1 [linezolid Form IV]
